Test results: patent US10508085B2, “Compounds and methods for IDO and TDO modulation, and indications therefor” (Plexxikon Inc., priority 2016, dated 2019)

How the values were obtained:
[1] = target: T1, Human Indoleamine 2,3-dioxygenase (IDO) (Homo sapiens, UniProt P14902); experiment: Human IDO enzymatic assay (kynurenine level); type: biochemical; conditions: 6 nM IDO, 10 μM L-Trp; geometric mean; read-out: IDO1 GMean: IC50 (μM) (Biochemical Assay)
T1 construct: His tag (N); made in house; host or cells: E. coli
T1 sequence (P14902 whole entry): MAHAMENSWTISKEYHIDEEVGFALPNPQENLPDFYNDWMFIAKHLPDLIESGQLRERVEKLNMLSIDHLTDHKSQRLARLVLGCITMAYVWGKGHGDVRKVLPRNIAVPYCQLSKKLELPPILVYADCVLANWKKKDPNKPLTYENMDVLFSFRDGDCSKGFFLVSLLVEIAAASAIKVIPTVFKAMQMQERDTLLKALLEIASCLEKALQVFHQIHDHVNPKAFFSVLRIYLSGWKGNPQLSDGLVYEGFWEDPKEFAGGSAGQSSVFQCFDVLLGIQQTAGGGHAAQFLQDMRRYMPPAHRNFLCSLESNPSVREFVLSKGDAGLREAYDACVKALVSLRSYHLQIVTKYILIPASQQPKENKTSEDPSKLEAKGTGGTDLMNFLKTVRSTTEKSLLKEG
Procedure, shortened: (§1)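 Kynurenine formed is measured after TCA quench and 50 °C hydrolysis, with % inhibition against full-reaction and no-enzyme controls (5% DMSO). IDO: 6 nM enzyme, 10 μM L-Trp, 5 μM methylene blue, 20 min; TDO: 1 nM, 350 μM L-Trp, 0.4 μM methylene blue, 70 min; both pH 6.5, room temp, E. coli-expressed His-tagged.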

[2] = target: T2, Human Tryptophan 2,3-dioxygenase (TDO) (Homo sapiens, UniProt P48775); experiment: Human TDO enzymatic assay (kynurenine level); type: biochemical; conditions: 1 nM TDO, 350 μM L-Trp; geometric mean; read-out: TDO GMean: IC50 (μM) (Biochemical Assay)
T2 construct: His tag (N); made in house; host or cells: E. coli
T2 sequence (P48775 whole entry): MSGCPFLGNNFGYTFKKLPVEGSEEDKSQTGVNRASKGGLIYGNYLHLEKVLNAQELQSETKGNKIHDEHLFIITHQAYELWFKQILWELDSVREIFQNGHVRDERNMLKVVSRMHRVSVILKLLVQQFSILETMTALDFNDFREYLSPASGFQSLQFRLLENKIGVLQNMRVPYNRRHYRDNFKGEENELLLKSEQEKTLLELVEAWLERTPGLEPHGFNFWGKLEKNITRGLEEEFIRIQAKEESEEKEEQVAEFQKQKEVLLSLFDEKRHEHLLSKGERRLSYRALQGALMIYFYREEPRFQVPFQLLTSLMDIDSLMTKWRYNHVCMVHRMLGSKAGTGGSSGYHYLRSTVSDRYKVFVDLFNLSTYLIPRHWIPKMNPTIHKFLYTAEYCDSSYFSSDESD
Procedure, shortened: as §1

[3] = target: T3, human IDO (IDO1-expressing HEK293 cells) (Homo sapiens, UniProt P14902); experiment: Cell based kynurenine assay, IDO1-expressing HEK293 cell clones; conditions: IDO1-expressing HEK293 cells, 24 hours, geometric mean; read-out: HEK293 IDO1 Kynurenine GMean IC50 (μM) (Cellular Assay)
T3 construct: expressed in transfected cells
T3 sequence (P14902 whole entry): as the sequence (P14902 whole entry) above
Procedure, shortened: (§2)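 Kynurenine in culture supernatant read after 24 h compound exposure of HEK293 cells stably expressing human IDO1 or TDO. IC50 from nonlinear regression of % inhibition relative to 0.2% DMSO cell (high) and media-only (low) controls.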

[4] = target: T4, human TDO (TDO-expressing HEK293 cells) (Homo sapiens, UniProt P48775); experiment: Cell based kynurenine assay, TDO-expressing HEK293 cell clones; conditions: TDO-expressing HEK293 cells, 24 hours, geometric mean; read-out: HEK293 TDO Kynurenine GMean IC50 (μM) (Cellular Assay)
T4 construct: expressed in transfected cells
T4 sequence (P48775 whole entry): as the sequence (P48775 whole entry) above
Procedure, shortened: as §2

| IC50 [1] | IC50 [2] | IC50 [3] | IC50 [4] | SMILES |
| --- | --- | --- | --- | --- |
| 0.0001 to 10 µM | 0.0001 to 10 µM | 0.0001 to 10 µM | 0.0001 to 10 µM | CCC(=O)N1CCC(C(C)(C)[C@@H](O)c2cc(Cl)cc3cn[nH]c23)CC1 [Compound P-0423, (R)-1-(4-(1-(5-chloro-1H-indazol-7-yl)-1-hydroxy-2-methylpropan-2-yl)piperidin-1-yl)propan-1-one] |
| 0.0001 to 10 µM | 0.0001 to 10 µM | > 10 µM | 0.0001 to 10 µM | CC(C)(C1CCN(C(=O)C2CC2)CC1)[C@@H](O)c1cc(Cl)cc2cn[nH]c12 [Compound P-0424, (R)-(4-(1-(5-chloro-1H-indazol-7-yl)-1-hydroxy-2-methylpropan-2-yl)piperidin-1-yl)(cyclopropyl) methanone] |
| 0.0001 to 10 µM | 0.0001 to 10 µM | 0.0001 to 10 µM | 0.0001 to 10 µM | COCCNC(=O)N1CCC(C(C)(C)[C@@H](O)c2cc(Cl)cc3cn[nH]c23)CC1 [Compound P-0425, (R)-4-(1-(5-chloro-1H-indazol-7-yl)-1-hydroxy-2-methylpropan-2-yl)-N-(2-methoxyethyl) piperidine-1-carboxamide] |
| 0.0001 to 10 µM | 0.0001 to 10 µM | > 10 µM | 0.0001 to 10 µM | CC(C)(C1CCN(C(N)=O)CC1)[C@@H](O)c1cc(Cl)cc2cn[nH]c12 [Compound P-0426, (R)-4-(1-(5-chloro-1H-indazol-7-yl)-1-hydroxy-2-methylpropan-2-yl)piperidine-1-carboxamide] |
| 0.0001 to 10 µM | 0.0001 to 10 µM | 0.0001 to 10 µM | 0.0001 to 10 µM | CNC(=O)N1CCC(C(C)(C)[C@@H](O)c2cc(Cl)cc3cn[nH]c23)CC1 [Compound P-0427, (R)-4-(1-(5-chloro-1H-indazol-7-yl)-1-hydroxy-2-methylpropan-2-yl)-N-methylpiperidine-1-carboxamide] |
| 0.0001 to 10 µM | 0.0001 to 10 µM | > 10 µM | 0.0001 to 10 µM | CCNC(=O)N1CCC(C(C)(C)[C@@H](O)c2cc(Cl)cc3cn[nH]c23)CC1 [Compound P-0428, (R)-4-(1-(5-chloro-1H-indazol-7-yl)-1-hydroxy-2-methylpropan-2-yl)-N-ethylpiperidine-1-carboxamide] |
| 0.0001 to 10 µM | 0.0001 to 10 µM | > 10 µM | 0.0001 to 10 µM | CC(C)NC(=O)N1CCC(C(C)(C)[C@@H](O)c2cc(Cl)cc3cn[nH]c23)CC1 [Compound P-0429, (R)-4-(1-(5-chloro-1H-indazol-7-yl)-1-hydroxy-2-methylpropan-2-yl)-N-isopropylpiperidine-1-carboxamide] |
| 0.0001 to 10 µM | 0.0001 to 10 µM | 0.0001 to 10 µM | 0.0001 to 10 µM | CC(C)(C1CCN(C(=O)Nc2cccnc2)CC1)[C@@H](O)c1cc(Cl)cc2cn[nH]c12 [Compound P-0430, (R)-4-(1-(5-chloro-1H-indazol-7-yl)-1-hydroxy-2-methylpropan-2-yl)-N-(pyridin-3-yl)piperidine-1-carboxamide] |
| 10 to 100 µM | 0.0001 to 10 µM | 0.0001 to 10 µM | 0.0001 to 10 µM | CC(C)(C1CCN(C(=O)Nc2ccccc2)CC1)[C@@H](O)c1cc(Cl)cc2cn[nH]c12 [Compound P-0431, (R)-4-(1-(5-chloro-1H-indazol-7-yl)-1-hydroxy-2-methylpropan-2-yl)-N-phenylpiperidine-1-carboxamide] |
| 0.0001 to 10 µM | 0.0001 to 10 µM | > 10 µM | 0.0001 to 10 µM | CC(C)(C1CCN(C(=O)Nc2ccccc2Cl)CC1)[C@@H](O)c1cc(Cl)cc2cn[nH]c12 [Compound P-0432, (R)-4-(1-(5-chloro-1H-indazol-7-yl)-1-hydroxy-2-methylpropan-2-yl)-N-(2-chlorophenyl) piperidine-1-carboxamide] |
| > 200 µM | 0.0001 to 10 µM | 0.0001 to 10 µM | 0.0001 to 10 µM | CC(C)(C1CCN(C(=O)Nc2ccc(Cl)cc2)CC1)[C@@H](O)c1cc(Cl)cc2cn[nH]c12 [Compound P-0433, (R)-4-(1-(5-chloro-1H-indazol-7-yl)-1-hydroxy-2-methylpropan-2-yl)-N-(4-chlorophenyl) piperidine-1-carboxamide] |
| 10 to 100 µM | 0.0001 to 10 µM | 0.0001 to 10 µM | 0.0001 to 10 µM | CC(C)(C1CCN(C(=O)Nc2cccc(F)c2)CC1)[C@@H](O)c1cc(Cl)cc2cn[nH]c12 [Compound P-0434, (R)-4-(1-(5-chloro-1H-indazol-7-yl)-1-hydroxy-2-methylpropan-2-yl)-N-(3-fluorophenyl) piperidine-1-carboxamide] |
| 0.0001 to 10 µM | 0.0001 to 10 µM | 0.0001 to 10 µM | 0.0001 to 10 µM | COCC(=O)N1CCC(C(C)(C)[C@@H](O)c2cc(Cl)cc3cn[nH]c23)CC1 [Compound P-0435, (R)-1-(4-(1-(5-chloro-1H-indazol-7-yl)-1-hydroxy-2-methylpropan-2-yl)piperidin-1-yl)-2-methoxyethan-1-one] |
| 0.0001 to 10 µM | 0.0001 to 10 µM | 0.0001 to 10 µM | 0.0001 to 10 µM | CC(C)(C1CCN(C(=O)CC#N)CC1)[C@@H](O)c1cc(Cl)cc2cn[nH]c12 [Compound P-0436, (R)-3-(4-(1-(5-chloro-1H-indazol-7-yl)-1-hydroxy-2-methylpropan-2-yl)piperidin-1-yl)-3-oxopropanenitrile] |
| 0.0001 to 10 µM | 0.0001 to 10 µM | > 10 µM | > 10 µM | CC(C)(C1CCN(C(=O)Nc2ccccc2C(F)(F)F)CC1)[C@@H](O)c1cc(Cl)cc2cn[nH]c12 [Compound P-0437, (R)-4-(1-(5-chloro-1H-indazol-7-yl)-1-hydroxy-2-methylpropan-2-yl)-N-(2-(trifluoromethyl)phenyl)piperidine-1-carboxamide] |
| 0.0001 to 10 µM | 0.0001 to 10 µM | 0.0001 to 10 µM | 0.0001 to 10 µM | CC(C)(C(O)c1cc(Cl)cc2cn[nH]c12)[C@H]1C[C@H]2CC[C@@H](C1)N2C(=O)NCC(F)(F)F (stereo partly drawn) [Compound P-0438, (1R,3r,5S)-3-(1-(5-chloro-1H-indazol-7-yl)-1-hydroxy-2-methylpropan-2-yl)-N-(2,2,2-trifluoroethyl)-8-azabicyclo[3.2.1] octane-8-carboxamide] |
| 0.0001 to 10 µM | 0.0001 to 10 µM | 0.0001 to 10 µM | 0.0001 to 10 µM | CC(C)(C(O)c1cc(Cl)cc2cn[nH]c12)[C@H]1C[C@H]2CC[C@@H](C1)N2C(=O)NC1CC1 (stereo partly drawn) [Compound P-0439, (1R,3r,5S)-3-(1-(5-chloro-1H-indazol-7-yl)-1-hydroxy-2-methylpropan-2-yl)-N-cyclopropyl-8-azabicyclo [3.2.1]octane-8-carboxamide] |
| 0.0001 to 10 µM | 0.0001 to 10 µM | 0.0001 to 10 µM | 0.0001 to 10 µM | CC(C)(C(O)c1cc(Cl)cc2cn[nH]c12)[C@H]1C[C@H]2CC[C@@H](C1)N2C(=O)Nc1ccc(F)cc1 (stereo partly drawn) [Compound P-0440, (1R,3r,5S)-3-(1-(5-chloro-1H-indazol-7-yl)-1-hydroxy-2-methylpropan-2-yl)-N-(4-fluorophenyl)-8-azabicyclo[3.2.1] octane-8-carboxamide] |
| 0.0001 to 10 µM | 0.0001 to 10 µM | 0.0001 to 10 µM | 0.0001 to 10 µM | CC(C)(C1CCN(C(=O)CN2CCOCC2)CC1)C(O)c1cc(Cl)cc2cn[nH]c12 (stereo not shown) [Compound P-0441, 1-(4-(1-(5-chloro-1H-indazol-7-yl)-1-hydroxy-2-methylpropan-2-yl)piperidin-1-yl)-2-morpholinoethan-1-one] |
